In US20200223839A1, “FLUORO-CONTAINING COMPOUNDS, USE AND PREPARATION THEREOF” (JIANGSU YINGKEBEITA YIYAOKEJI CO. LTD, priority 2017, published 2020):

Tests used:
[1] = system: MV-4-11; test: Cytotoxicity assay by the CTG method, MV-4-11; assay type: cell-based; conditions: Homo sapiens, MV4-11, MV-4-11, Leukemia, 72 h
Experimental: (§1) The corresponding cells were harvested from flask into cell culture medium and the cell number were counted. The cells were diluted with culture medium to the desired density and 40 μL of cell suspension was added into each well of 384-well cell culture plate as designated. The plates were covered with lid and placed in room temperature for 30 minutes without shaking and then were transferred plates into 37° C. 5% CO2 incubator overnight for cell attachment.
(§2) Compound preparation and treatment: Test compounds were received or dissolved at 30 mM stock solution and control compound Staurosporine was stored as 10 mM and 1 mM concentration. 45 uL of stock solution was transferred to a 384 pp-plate. 3 fold, 10-point dilution were performed via transferring 15 uL compound into 30 μL DMSO by using TECAN (EVO200) liquid handler. The plates were spun at room temperature at 1,000 RPM for 1 minute and shaken at a plate shaker for 2 minutes. […]
(§3) The plate from incubators were placed and equilibrated at room temperature for 15 minutes. […] 40 μL of CellTiter-Glo reagent were transferred into each well to be detected (at 1:1 to culture medium). Then the plates were placed at room temperature for 30 min followed by reading on EnSpire.
(§4) The inhibition activity was calculated following the formula below: […]
(§5) The IC50 were calculated by fitting the Curve using Xlfit (v5.3.1.3): […]

[2] = system: CaKi-1; test: Cytotoxicity assay by the CTG method, CaKi-1; assay type: cell-based; conditions: Homo sapiens, CaKi-1, Kidney cancer, 72 h
Experimental: as §1, §2, §3, §4, §5

[3] = system: PLC/PRF/5; test: Cytotoxicity assay by the CTG method, PLC/PRF/5; assay type: cell-based; conditions: Homo sapiens, PLC/PRF/5, Liver cancer, 72 h
Experimental: as §1, §2, §3, §4, §5

[4] = system: ZR-75-1; test: Cytotoxicity assay by the CTG method, ZR-75-1; assay type: cell-based; conditions: Homo sapiens, ZR-75-1, Breast cancer, 72 h
Experimental: as §1, §2, §3, §4, §5

[5] = system: A2058; test: Cytotoxicity assay by the CTG method, A2058; assay type: cell-based; conditions: Homo sapiens, A2058, Melanoma, 72 h
Experimental: as §1, §2, §3, §4, §5

[6] = In vivo mouse model, Hep3B, mice weights
Source text: Hep3B cells (human liver cancer) were also studied in a mouse model. […] FIG. 9.

[7] = system: BT-474; test: Cytotoxicity assay by the CTG method, BT-474; assay type: cell-based; conditions: Homo sapiens, BT-474, Breast cancer, 72 h
Experimental: as §1, §2, §3, §4, §5

[8] = system: MDA-MB-468; test: Cytotoxicity assay by the CTG method, MDA-MB-468; assay type: cell-based; conditions: Homo sapiens, MDA-MB-468, Breast cancer, 72 h
Experimental: as §1, §2, §3, §4, §5

[9] = system: NCI-H446; test: Cytotoxicity assay by the CTG method, NCI-H446; assay type: cell-based; conditions: Homo sapiens, NCI-H446, Lung cancer, 72 h
Experimental: as §1, §2, §3, §4, §5

[10] = system: WM-266-4; test: Cytotoxicity assay by the CTG method, WM-266-4; assay type: cell-based; conditions: Homo sapiens, WM-266-4, Melanoma, 72 h
Experimental: as §1, §2, §3, §4, §5

[11] = system: HT29; test: Cytotoxicity assay by the CTG method, HT29; assay type: cell-based; conditions: Homo sapiens, HT-29, HT29, Colon cancer, 72 h
Experimental: as §1, §2, §3, §4, §5

[12] = system: U87MG; test: Cytotoxicity assay by the CTG method, U87MG; assay type: cell-based; conditions: Homo sapiens, U-87 MG, Glioblastoma, 72 h
Experimental: as §1, §2, §3, §4, §5

[13] = system: SK-MEL-3; test: Cytotoxicity assay by the CTG method, SK-MEL-3; assay type: cell-based; conditions: Homo sapiens, SK-MEL3, SK-MEL-3, Melanoma, 72 h
Experimental: as §1, §2, §3, §4, §5

[14] = system: COLO205; test: Cytotoxicity assay by the CTG method, COLO205; assay type: cell-based; conditions: Homo sapiens, COLO 205, COLO205, Colon cancer, 72 h
Experimental: as §1, §2, §3, §4, §5

[15] = system: U937; test: Cytotoxicity assay by the CTG method, U937; assay type: cell-based; conditions: Homo sapiens, U-937, U937, Lymphoma, 72 h
Experimental: as §1, §2, §3, §4, §5

[16] = system: HCT116; test: Cytotoxicity assay by the CTG method, HCT116; assay type: cell-based; conditions: Homo sapiens, HCT-116, HCT116, Colon cancer, 72 h
Experimental: as §1, §2, §3, §4, §5

[17] = system: MDA-MB-453 cells (human breast cancer); test: In vivo mouse model, MDA-MB-453, tumor sizes; conditions: MDA-MB-453 mouse model, similar dosage (for example, 100 mg/Kg), FIG. 6
Source text: MDA-MB-453 cells (human breast cancer) were also studied in a mouse model. […] FIG. 7.

[18] = system: MCF-7; test: Cytotoxicity assay by the CTG method, MCF-7; assay type: cell-based; conditions: Homo sapiens, MCF7, MCF-7, Breast cancer, 72 h
Experimental: as §1, §2, §3, §4, §5

[19] = system: 786-O; test: Cytotoxicity assay by the CTG method, 786-O; assay type: cell-based; conditions: Homo sapiens, 786-0, Kidney cancer, 72 h
Experimental: as §1, §2, §3, §4, §5

[20] = system: SK-OV-3; test: Cytotoxicity assay by the CTG method, SK-OV-3; assay type: cell-based; conditions: Homo sapiens, SK-OV-3, Ovarian cancer, 72 h
Experimental: as §1, §2, §3, §4, §5

[21] = system: OVCAR-3; test: Cytotoxicity assay by the CTG method, OVCAR-3; assay type: cell-based; conditions: Homo sapiens, OVCAR-3, Ovarian cancer, 72 h
Experimental: as §1, §2, §3, §4, §5

[22] = system: Hep3B; test: Cytotoxicity assay by the CTG method, Hep3B; assay type: cell-based; conditions: Homo sapiens, Liver cancer, 72 h
Experimental: as §1, §2, §3, §4, §5

[23] = system: BT474; test: Cell culture and cytotoxicity assay (CTG), BT474; assay type: cell-based; conditions: Homo sapiens, BT-474, BT474, exposure 96 hours
Experimental: (§6) The assayed compounds each was dissolved in DMSO with a final concentration of 10 mM or 40 mM and stored at −20° C. Tumor cell lines A549 (7,000 cells/well), BT474 (12,000 cells/well), MDA-MB-468 (12,000 cells/well), and HCC1937 (6,000 cells/well) were seeded on 96-well plates. And the cells were pre-incubated at 37° C./5% CO2 for 24 hours. The cells were exposed to different concentrations of the assay compounds (from 400 μM to 782 nM, from 200 μM to 391 nM, from 100 μM to 196 nM, and from 50 μM to 98 nM) for the following time:
(§7) After incubation, 100 μL from each well was discarded and CTG base (Proega, G7571, 50 μL) was added and the mixture was agitated for 2 minutes. The mixtures were stored in a dark room for 10 minutes and the viability was analyzed with Multiskan microplate reader.

[24] = system: A549; test: Cell culture and cytotoxicity assay (CTG), A549; assay type: cell-based; conditions: Homo sapiens, A549, exposure 72 hours
Experimental: as §6, §7

weight changes ([6]; FIG. 9, 50 mg/Kg): no difference in weight changes | weight changes ([6]; FIG. 9, 100 mg/Kg): no difference in weight changes
Compound: Cc1ccc(S(=O)(=O)Nc2nc3ccccc3nc2Nc2ccc3nsnc3c2)cc1F [Compound 4f, N-[3-(benzo[1,2,5]thiadiazol-5-ylamino)-quinoxalin-2-yl]-3-fluoro-4-methyl-benzenesulfonamide]
IC50 [1]: 6.8 µM | IC50 [2]: 13 µM | IC50 [3]: 3.27 µM | IC50 [4]: 1.53 µM | IC50 [5]: 7.7 µM | IC50 [7]: 7.01 µM | IC50 [8]: 2.49 µM | IC50 [9]: 3.92 µM | IC50 [10]: 9.1 µM | IC50 [11]: 2.44 µM | IC50 [12]: 18 µM | IC50 [13]: 9.06 µM | IC50 [14]: 2.99 µM | IC50 [15]: 3.68 µM | IC50 [16]: 5.44 µM | anticancer activities (tumor sizes) compared with Ref. 2 [17]: better anticancer activities than Ref. 2 | IC50 [18]: 5.19 µM | IC50 [19]: 5.74 µM | IC50 [20]: 9.37 µM | IC50 [21]: 6.68 µM | IC50 [22]: 3.97 µM | IC50 [23]: 12500 to 25000 nM | IC50 [24]: 25000 to 50000 nM
